Data published in patent publication US20190119298A1, “FUSED 3-PHENYLTETRAMIC ACID DERIVATIVES HAVING HERBICIDAL ACTION” (Bayer CropScience Aktiengesellschaft, priority 2016, published 2019).

Experiments:
Type in all cases: in vivo
Alopecurus myosuroides [1] = test: Pre-emergence herbicidal effect; details: 320 g/ha, scored visually after 3 weeks vs untreated controls, 100% = plants have died
Text: (§1) Seeds of monocotyledonous and dicotyledonous weed plants and crop plants are laid out in sandy loam soil in wood-fibre pots and covered with soil. The compounds of the invention, formulated in the form of wettable powders (WP) or as emulsion concentrates (EC), are then applied to the surface of the covering soil as aqueous suspension or emulsion at a water application rate equating to 600 to 800 L/ha with addition of 0.2% wetting agent. After the treatment, the pots are placed in a greenhouse and kept under good growth conditions for the trial plants. The damage to the test plants is scored visually after a test period of 3 weeks by comparison with untreated controls (herbicidal activity in percent (%): 100% activity=the plants have died, 0% activity=like control plants). ALOMY: Alopecurus myosuroides

Lolium multiflorum [2] = test: Post-emergence herbicidal effect; details: one-leaf stage, 320 g/ha, assessed visually after about 3 weeks, 100% = plants have died
Protocol: (§2) LOLMU: Lolium multiflorum Seeds of monocotyledonous and dicotyledonous weed and crop plants are laid out in sandy loam soil in wood-fibre pots, covered with soil and cultivated in a greenhouse under good growth conditions. 2 to 3 weeks after sowing, the test plants are treated at the one-leaf stage. The compounds of the invention, formulated in the form of wettable powders (WP) or as emulsion concentrates (EC), are then sprayed onto the green parts of the plants as aqueous suspension or emulsion at a water application rate equating to 600 to 800 L/ha with addition of 0.2% wetting agent. After the test plants have been left to stand in the greenhouse under optimal growth conditions for about 3 weeks, the action of the preparations is assessed visually in comparison to untreated controls (herbicidal action in percent (%): 100% activity=the plants have died, 0% activity=like control plants).

Echinochloa crus-galli [3] = test: Pre-emergence herbicidal effect; details: 320 g/ha, scored visually after 3 weeks vs untreated controls, 100% = plants have died
Text: as §1, with “ECHCG: Echinochloa crus-galli” for “ALOMY: Alopecurus myosuroides”

Avena fatua [4] = test: Post-emergence herbicidal effect; details: one-leaf stage, 320 g/ha, assessed visually after about 3 weeks, 100% = plants have died
Protocol: as §2, with “AVEFA: Avena fatua” for “LOLMU: Lolium multiflorum”

Echinochloa crus-galli [5] = test: Post-emergence herbicidal effect; details: one-leaf stage, 320 g/ha, assessed visually after about 3 weeks, 100% = plants have died
Protocol: as §2, with “ECHCG: Echinochloa crus-galli” for “LOLMU: Lolium multiflorum”

Setaria viridis [6] = test: Post-emergence herbicidal effect; details: one-leaf stage, 320 g/ha, assessed visually after about 3 weeks, 100% = plants have died
Protocol: as §2, with “SETVI: Setaria viridis” for “LOLMU: Lolium multiflorum”

Avena fatua [7] = test: Pre-emergence herbicidal effect; details: 320 g/ha, scored visually after 3 weeks vs untreated controls, 100% = plants have died
Text: as §1, with “AVEFA: Avena fatua” for “ALOMY: Alopecurus myosuroides”

Lolium multiflorum [8] = test: Pre-emergence herbicidal effect; details: 320 g/ha, scored visually after 3 weeks vs untreated controls, 100% = plants have died
Text: as §1, with “LOLMU: Lolium multiflorum” for “ALOMY: Alopecurus myosuroides”

Alopecurus myosuroides [9] = test: Post-emergence herbicidal effect; details: one-leaf stage, 320 g/ha, assessed visually after about 3 weeks, 100% = plants have died
Protocol: as §2, with “ALOMY: Alopecurus myosuroides” for “LOLMU: Lolium multiflorum”

Setaria viridis [10] = test: Pre-emergence herbicidal effect; details: 320 g/ha, scored visually after 3 weeks vs untreated controls, 100% = plants have died
Text: as §1, with “SETVI: Setaria viridis” for “ALOMY: Alopecurus myosuroides”

SMILES | Pre-emergence action ALOMY (herbicidal activity in percent) (Alopecurus myosuroides [1]) | Post-emergence effectiveness LOLMU (herbicidal action in percent) (Lolium multiflorum [2]) | Pre-emergence action ECHCG (herbicidal activity in percent) (Echinochloa crus-galli [3]) | Post-emergence effectiveness AVEFA (herbicidal action in percent) (Avena fatua [4]) | Post-emergence effectiveness ECHCG (herbicidal action in percent) (Echinochloa crus-galli [5]) | Post-emergence effectiveness SETVI (herbicidal action in percent) (Setaria viridis [6]) | Pre-emergence action AVEFA (herbicidal activity in percent) (Avena fatua [7]) | Pre-emergence action LOLMU (herbicidal activity in percent) (Lolium multiflorum [8]) | Post-emergence effectiveness ALOMY (herbicidal action in percent) (Alopecurus myosuroides [9]) | Pre-emergence action SETVI (herbicidal activity in percent) (Setaria viridis [10])
Cc1cc(C)c(C2=C(O)C3CCOCCN3C2=O)c(C)c1 (centres unmarked) [Ia-1-1] | 100% | 100% | 100% | 100% | 100% | 100% | 100% | 100% | 100% | 90%
CCc1cc(C)cc(C)c1C1=C(O)C2CCOCCN2C1=O (centres unmarked) [Ia-1-2] | 100% | 100% | 100% | 100% | 100% | 100% | 100% | 100% | 100% | 100%
CCc1cccc(C)c1C1=C(O)C2CCOCCN2C1=O (centres unmarked) [Ia-1-4] | 80% | 100% | 100% | 100% | 100% | 100% | 100% | 100% | 100% | 100%
CCc1cc(Cl)cc(OC)c1C1=C(O)C2CCOCCN2C1=O (centres unmarked) [Ia-1-6] | 100% | 100% | 100% | 100% | 100% | 100% | 100% | 100% | 100% | 100%
CCc1cc(Cl)cc(OC)c1C1=C(O)C2=CCOCCN2C1=O [Ia-3-4] | 80% | 100% | 90% | 100% | 100% | 100% | 80% | 90% | 100% | 100%
CCOC(=O)OC1=C(c2c(CC)cc(C)cc2CC)C(=O)N2CCOCCC12 (centres unmarked) [Ib-1-2] | 100% | 100% | 100% | 100% | 100% | 100% | 100% | 100% | 100% | 100%
CCc1cc(C)cc(CC)c1C1=C(OC(=O)C(C)(C)C)C2CCOCCN2C1=O (centres unmarked) [Ib-1-3] | 100% | 100% | 100% | 100% | 100% | 100% | 100% | 100% | 100% | 100%
CCc1cc(C)cc(CC)c1C1=C(OC(C)=O)C2CCOCCN2C1=O (centres unmarked) [Ib-1-4] | 100% | 100% | 100% | 100% | 100% | 100% | 100% | 100% | 100% | 100%
